Values joined by “and” are separate entries in the source; they are usually repeats but may differ in a detail not shown here. Identical values can stand only once. Like-named read-outs stand apart in the source and are kept apart here.

The text below walks through data of patent US6500842B1, “8-hydroxy-7-substituted quinolines as anti-viral agents” (Pharmacia & Upjohn Company, priority 1996, dated 2002).

One series addresses T1, HCMV polymerase (Human cytomegalovirus, UniProt P08546).
T1 construct: made in house; host or cells: recombinant baculovirus-infected SF-9 cells
Kind of series: HCMV polymerase assay (scintillation proximity assay). It counts as biochemical. The settings on record: pol type CMV. The method in brief:
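Baculovirus/SF-9-expressed purified enzyme in HEPES pH 7.5, KCl, 4.5 mM MgCl2, BSA, with 90 nM ³H-dTTP, ± 2 mM CHAPS; started with 6 nM biotinylated poly(dA)-oligo(dT), 30 min, stopped with EDTA. Incorporation read by streptavidin SPA beads; IC50 by linear regression.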
(Scintillation proximity formats need no separation of bound from free tracer.)

For the next series, the target named is T2, CMV polymerase (Human cytomegalovirus, UniProt P08546).
T2 construct: made in house; host or cells: recombinant baculovirus-infected SF-9 cells
T2 sequence (P08546 whole entry): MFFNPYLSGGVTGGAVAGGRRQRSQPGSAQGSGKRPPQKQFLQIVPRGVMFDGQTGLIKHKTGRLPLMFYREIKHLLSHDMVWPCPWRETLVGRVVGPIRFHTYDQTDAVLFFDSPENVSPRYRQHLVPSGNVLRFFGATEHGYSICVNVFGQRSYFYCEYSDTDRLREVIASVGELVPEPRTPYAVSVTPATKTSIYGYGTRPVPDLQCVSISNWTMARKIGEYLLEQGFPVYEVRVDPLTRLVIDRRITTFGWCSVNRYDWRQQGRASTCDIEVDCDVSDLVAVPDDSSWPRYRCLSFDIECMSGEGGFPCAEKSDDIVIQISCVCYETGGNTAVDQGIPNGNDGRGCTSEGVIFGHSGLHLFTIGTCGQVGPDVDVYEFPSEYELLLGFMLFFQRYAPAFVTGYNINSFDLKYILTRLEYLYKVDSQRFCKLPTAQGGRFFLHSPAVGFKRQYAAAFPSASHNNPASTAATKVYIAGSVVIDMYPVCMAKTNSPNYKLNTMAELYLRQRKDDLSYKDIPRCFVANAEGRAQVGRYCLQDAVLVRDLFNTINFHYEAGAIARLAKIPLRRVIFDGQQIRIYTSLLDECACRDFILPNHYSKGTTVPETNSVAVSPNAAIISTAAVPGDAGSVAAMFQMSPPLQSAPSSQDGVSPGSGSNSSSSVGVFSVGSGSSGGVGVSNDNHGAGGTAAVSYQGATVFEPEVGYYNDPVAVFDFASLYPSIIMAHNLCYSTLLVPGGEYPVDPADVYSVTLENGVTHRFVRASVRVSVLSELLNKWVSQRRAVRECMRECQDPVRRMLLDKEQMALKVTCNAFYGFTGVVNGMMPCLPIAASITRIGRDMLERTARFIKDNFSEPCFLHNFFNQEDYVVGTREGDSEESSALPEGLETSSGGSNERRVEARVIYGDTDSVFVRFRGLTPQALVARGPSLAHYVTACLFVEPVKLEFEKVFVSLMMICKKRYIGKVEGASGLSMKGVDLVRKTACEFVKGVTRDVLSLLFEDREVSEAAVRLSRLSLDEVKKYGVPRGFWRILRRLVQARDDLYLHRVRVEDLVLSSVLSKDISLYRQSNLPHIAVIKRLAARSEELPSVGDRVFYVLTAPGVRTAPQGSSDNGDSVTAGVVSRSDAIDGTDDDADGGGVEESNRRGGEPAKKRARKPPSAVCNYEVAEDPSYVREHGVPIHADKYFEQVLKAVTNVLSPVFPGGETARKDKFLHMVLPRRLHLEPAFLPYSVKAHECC
Description: modified version of the HCMV polymerase assay (100% DMSO dilution, DTT, different enzyme lot). It counts as biochemical. Here is the method: The HCMV polymerase assay is performed using a scintillation proximity assay (SPA) as described in several references, such as N. D. Cook, et al., Pharmaceutical Manufacturing International, pages 49-53 (1992); K. Takeuchi, Laboratory Practice, September issue (1992); U.S. Pat. No. 4,568,649 (1986); which are incorporated by reference herein. Reactions are performed in 96-well plates. The assay is conducted in 100 μl volume with 5.4 mM HEPES (pH 7.5), 11.7 mM KCl, 4.5 mM MgCl2, 0.36 mg/ml BSA, and 90 nM ^3H-dTTP. Assays are run with and without CHAPS, (3-[(3-Cholamidopropyl)-dimethylammonio]-1-propane-sulfonate) at a final concentration of 2 mM. HCMV is diluted in enzyme dilution buffer containing 50% glycerol, 250 mM NaCl, 10 mM HEPES (pH 7.5), 100 pg/ml BSA, and 0.01% sodium azide. The HCMV polymerase, which is expressed in recombinant baculovirus-infected SF-9 cells and purified according to literature procedures, is added at 10% (or 10 μl) of the final reaction volume, i.e., 100 μl. Compounds are diluted in 50% DMSO and 10 μl are added to each well. Control wells contain an equivalent concentration of DMSO. Unless noted otherwise, reactions are initiated via the addition of 6 nM biotinylated poly(dA)-oligo(dT) template/primer to reaction mixtures containing the enzyme, substrate, and compounds of interest. Plates are incubated in a 25° C. of 37° C. H2O bath and terminated via the addition of 40 μl/reaction of 0.5 M EDTA (pH 8) per well. Reactions are terminated within the time-frame during which substrate incorporation is linear and varied depending upon the enzyme and conditions used, i.e., 30 min. for HCMV polymerase. Ten μl of streptavidin-SPA beads (20 mg/ml in PBS/10% glycerol) are added following termination of the reaction. Plates are incubated 10 min. at 37° C., then equilibrated to room temperature, and counted on a Packard Topcount. Linear regressions are performed and IC50's are calculated using computer software. Results of the testing of compounds of the present invention in this assay are shown in Tables 1, 2, 5, 9, 10, 11, 13 (except for the last compound which was tested under modified conditions) and 14 below.
A modified version of the above HCMV polymerase assay is performed as described above, but with the following changes: Compounds are diluted in 100% DMSO until final dilution into assay buffer. In the previous assay, compounds are diluted in 50% DMSO. 4.5 mM dithiotherotol (DTT) is added to the polymerase buffer.

[1] abbreviates: Table 1, read-out: CMV pol Assay IC50.
[2] abbreviates: Polymerase CMV, Table 7, read-out: Antiviral Selective Polymerase IC50 Values - IC50.

T1 sequence (P08546 whole entry): as above

`COc1ccc(/C=C/c2ccc3ccc(C(=O)NCc4ccc(Cl)cc4)c(O)c3n2)cc1` [Example 47, N-[(4-Chlorophenyl)methyl]-8-hydroxy-2-[2-(4-methoxyphenyl)ethenyl]-7-quinolinecarboxamide]: the melting point – broadly, the temperature, or range, at which the solid turns liquid – is 200 to 201 °C. Besides, the IC50 (in general, the concentration at which inhibition is half-maximal) on HCMV polymerase (Table 5, read-out: IC50) was 0.35 µM and < 0.3 µM. As for `O=C(Nc1ncc(-c2ccc(Br)s2)s1)c1ccc2cccnc2c1O` [Example 7, N-[5-(5-Bromo-2-thienyl)-2-thiazolyl]-8-hydroxy-7-quinolinecarboxamide], the melting point is 279 to 281 °C (dec.). The IC50 on HCMV polymerase (setting [1]) is 6.9 µM. For the compound `Cc1ccc2c(Cl)cc(C(=O)NCCCc3ccccc3)c(O)c2n1` [Example 69, 5-chloro-8-hydroxy-2-methyl-N-(3-phenylpropyl)-7-quinolinecarboxamide], the melting point fell in the range of 109 to 111 °C.

For `Cc1ccc2c(Cl)cc(S(=O)(=O)NCCc3c[nH]c4ccccc34)c(O)c2n1` [Example 64], the % Inhibition (usually how much of the control response was suppressed) on CMV polymerase (Concentration 3.13 μM, Table 6) was 16%; at CMV polymerase (Concentration 6.25 μM, Table 6) it was 25%; on CMV polymerase (Concentration 12.5 μM, Table 6), 25%; at CMV polymerase (Concentration 25 μM, Table 6) it was 46%; on CMV polymerase (Concentration 50 μM, Table 6), 75%; on CMV polymerase (Concentration 100 μM, Table 6), 58%. In addition, the “% Inhibition” value at CMV polymerase (Concentration 200 μM, Table 6) was found to be 84%. The IC50 at CMV polymerase (Table 6, read-out: IC50) stood at 29.8 µM. On to `O=C(NCc1ccc(Cl)cc1)c1cc(Br)c2cccnc2c1O` [Example 9, 5-Bromo-N-[(4-chlorophenyl)methyl]-8-hydroxy-7-quinolinecarboxamide], for which the melting point fell in the range of 148 to 151 °C. Further, at HCMV polymerase (setting [1]), the IC50 came out at 2.5 µM.

For the compound `CC(C)c1ccc(S(=O)(=O)NCCCCCNC(=O)c2ccc3cccnc3c2O)cc1` [drawing 128], on CMV polymerase (setting [2]), the IC50 is under 3.1 µM.

`O=C(NCC(O)c1ccccc1)c1ccc2ccc(/C=C/c3ccccc3)nc2c1O` (stereo not drawn) [Example 50, 8-Hydroxy-N-(2-hydroxy-2-phenylethyl)-2-(2-phenylethenyl)-7-quinolinecarboxamide] displayed a melting point of 83 to 86 °C. In addition, the IC50 on HCMV polymerase (Table 5, read-out: IC50) is < 3.1 µM and 1.2 µM. `O=S(=O)(NCc1ccc(Cl)cc1)c1cc(Cl)c2cccnc2c1O` [Example 18, 5-Chloro-N-[(4-chlorophenyl)methyl]-8-hydroxy-7-quinoline-sulfonamide]: the melting point was 189 to 190 °C (dec.). Further, on HCMV polymerase (Table 2, read-out: IC50), the IC50 worked out at 27.9 µM.

For `O=S(=O)(NCCc1ccc(Cl)cc1)c1cc(Cl)c2cccnc2c1O` [Example 23, 5-Chloro-N-[2-(4-chlorophenyl)ethyl]-8-hydroxy-7-quinoline-sulfonamide], the melting point lay within 192 to 194 °C. Moreover, on HCMV polymerase (Table 2, read-out: IC50), the IC50 is 2 µM and 3.1 µM. `O=S(=O)(NCc1ccccc1)c1cc(F)c2cccnc2c1O` [Example 67, 5-Flouro-8-hydroxy-N-(phenylmethyl)-7-quinolinesulfonamide]: the “% Inhibition” value came to 13% at CMV polymerase (Concentration 3.13 μM, Table 6); 23% at CMV polymerase (Concentration 6.25 μM, Table 6); 25% at CMV polymerase (Concentration 12.5 μM, Table 6); 41% at CMV polymerase (Concentration 25 μM, Table 6); 76% at CMV polymerase (Concentration 50 μM, Table 6); 86% on CMV polymerase (Concentration 100 μM, Table 6). Moreover, the “% Inhibition” value on CMV polymerase (Concentration 200 μM, Table 6) is reported as 94%. Further, the IC50 at CMV polymerase (Table 6, read-out: IC50) was determined as 23.6 µM. In turn, `Cc1ccc2c(Cl)cc(S(=O)(=O)NCc3cccc(Cl)c3)c(O)c2n1` [Example 33, 5-Chloro-N-[(3-chlorophenyl)methyl]-8-hydroxy-2-methyl-7-quinolinesulfonamide] had a melting point of 52 to 54 °C. The IC50 at HCMV polymerase (Table 2, read-out: IC50) came to 12.8 µM. Turning to `O=C(NCCCc1ccccc1)c1ccc2ccc(/C=C/c3ccccc3)nc2c1O`, the IC50 at CMV polymerase (Table 13, last compound, tested under modified conditions, read-out: IC50) stood at 5.1 µM. In the case of `Cc1ccc(F)cc1NC(=O)c1ccc2cccnc2c1O` [Example 165, N-(5-Fluoro-2-methylphenyl)-8-hydroxy-7-quinolinecarboxamide], the melting point was 209 to 210 °C. On to `Cc1ccc2ccc(C(=O)NCc3ccc(Cl)cc3)c(O)c2n1` [Example 10, N-[(4-Chlorophenyl)methyl]-8-hydroxy-2-methyl-7-quinolinecarboxamide], for which the melting point lay within 95 to 98 °C. Also, the IC50 at HCMV polymerase (setting [1]) turned out to be 19 µM. For the compound `O=C(Nc1nnc(C(F)(F)F)s1)c1ccc2cccnc2c1O` [Example 243, 8-Hydroxy-N-[5-(trifluoromethyl)-1,3,4-thiadiazol-2-yl]-7-quinolinecarboxamide], the melting point is 300 to 302 °C (dec.).

The compound `Cc1ccc(NC(=O)c2ccc3cccnc3c2O)c(C)c1` [Example 166, N-(2,4-Dimethylphenyl)-8-hydroxy-7-quinolinecarboxamide] registered a melting point of 164 to 167 °C. Consider `O=C(NC1=NC(=O)C(c2ccc(Cl)cc2)S1)c1ccc2cccnc2c1O` (stereo not drawn) [Example 5, N-[5-(4-Chlorophenyl)-4,5-dihydro-4-oxo-2-thiazolyl]-8-hydroxy-7-quinolinecarboxamide], for which the melting point was 272 to 276 °C (dec.). Further, the IC50 on HCMV polymerase (setting [1]) was 6.8 µM.

On to `O=C(Nc1nnc(Br)s1)c1ccc2cccnc2c1O` [Example 244, N-(5-Bromo-1,3,4-thiadiazol-2-yl)-8-hydroxy-7-quinolinecarboxamide], for which the melting point is 250 °C (dec.).

`Cc1ccc2c(Cl)cc(C(=O)NCCCc3ccccc3)c(O)c2n1` [drawing 126]: the IC50 on CMV polymerase (setting [2]) is 9.7 µM and 9.4 µM.

`Cc1ccc2c(Cl)cc(C(=O)NCCSc3ccccc3)c(O)c2n1` [Example 70, 5-chloro-8-hydroxy-2-methyl-N-[(2-phenylthio)ethyl]-7-quinolinecarboxamide] came in with a melting point of 131 to 134 °C. For the compound `CSCC[C@H](Nc1nnc(NC(=O)c2ccc3cccnc3c2O)s1)C(=O)OC(C)(C)C.O` (hydrate or solvate), the melting point was in the range of 204 to 205 °C. On the same count and under the same terms, the result for `O=C(Nc1cc(C(F)(F)F)ccc1Cl)c1ccc2cccnc2c1O` [Example 164, N-[2-Chloro-5-(trifluoromethyl)phenyl]-8-hydroxy-7-quinolinecarboxamide] reads 210 to 211 °C. Take `COc1ccc(CCc2ccc3ccc(C(=O)NCC(O)c4ccccc4)c(O)c3n2)cc1` (stereo not drawn) [drawing 129]: on CMV polymerase (setting [2]), the IC50 came out at 13.3 µM. `CCCCCCCNC(=O)c1ccc2ccc(C(F)(F)F)nc2c1O` [Example 56, N-Heptyl-8-hydroxy-2-(trifluoromethyl)-7-quinolinecarboxamide] showed a melting point of 97 to 99 °C. `COc1ccc(CCc2ccc3ccc(C(=O)NCC(O)c4ccccc4)c(O)c3n2)cc1` (stereo not drawn) [Example 73, 8-hydroxy-N-(2-hydroxy-2-phenylethyl)-2-[2-(4-methoxyphenyl)ethyl]-7-quinolinecarboxamide] returned a melting point of 69 to 72 °C. The same measure, in the same setting: under `Cc1ccc2c(Cl)cc(C(=O)NCc3ccc(Cl)cc3)c(O)c2n1` [Example 68, 5-Chloro-N-[(4-chlorophenyl)methyl]-8-hydroxy-2-methyl-7-quinolinecarboxamide] stands 128 to 130 °C; under `CC(C)C[C@H](Nc1nnc(NC(=O)c2ccc3cccnc3c2O)s1)C(=O)OC(C)(C)C.O` (hydrate or solvate), 214 to 215 °C. The same measure, in the same setting: under `O=S(=O)(NCc1ccccc1)c1cc(Br)c2cccnc2c1O` [Example 24, 5-Bromo-8-hydroxy-N-(phenylmethyl)-7-quinolinesulfonamide] stands 191 to 192 °C. As to `CC(C)c1ccc(S(=O)(=O)NCCCCCNC(=O)c2ccc3cccnc3c2O)cc1` [Example 71], the melting point was in the range of 106 to 108 °C. On the same count and under the same terms, the result for `Cc1ccc2c(Cl)cc(S(=O)(=O)NCC3CCCCC3)c(O)c2n1` [Example 32, 5-Chloro-N-(cyclohexylmethyl)-8-hydroxy-2-methyl-7-quinolinesulfonamide] reads 113 to 115 °C; that for `N#CCNC(=O)c1ccc2cccnc2c1O` [Example 72, N-(cyanomethyl)-8-hydroxy-7-quinolinecarboxamide], 206 to 208 °C (dec.).
